Assay results published in patent US20160221992A1, “DENDRITIC COMPOUNDS INCLUDING A CHELATING, FLUOROCHROME OR RECOGNITION AGENT, COMPOSITIONS INCLUDING SAME AND USES THEREOF” (UNIVERSITE DE STRASBOURG, priority 2013, published 2016).

What was measured:
[1] = tested on: murine melanoma (B16FO line); assay: Quantitative study of tumoral fixation and biodistribution of the radiolabeled compound (ex-vivo gamma counting after IV injection); type: in vivo, C57B16 mice; settings: for Ratio (g)/Al TU/kidneys / Ratio (g)/Al Tu/Liver / Ratio (g)/Al Tu/Lungs / Ratio (g)/Al Tu/blood / Total Elimination (% del ‘Al’) / Tumor (g/Al %) / Total Elimination: Indium-111-radiolabeled, IV
Protocol: C57B16 mice bearing xenografts of murine melanoma (B16FO line) obtained by subcutaneous injection of 300 000 cells suspended in 100 μl of RPMI culture medium are injected subcutaneously in the back. The experiment is performed when the tumors are palpable. i.e. about 10 days […]. All the experiments (tumoral graft, injection and imaging) are carried out under isoflurane/oxygen (2.5%/2.5%) gas anesthesia.
Injection of 50 to 100 microliters of the radiolabeled solution, with a maximum activity of 20 MBQ, by direct intravenous injection (caudal vein). The activity of the empty syringe after injection+compress is also measured for calculating the actual activity injected (actual Ac injected=Ac normalized full syringe—normalized activity (empty syringe and compress). Normalization consists in calculating the theoretical activity at one and the same time chosen as reference (for example the time of injection). The measurements are performed on a regularly calibrated activity meter for medical use (Medisystem©).
Scintigraphic imaging is carried out using a dedicated small animal micro-5 imager SPECT-CT (BIOSCAN™). A planar scintigraphic image is obtained immediately after injection to verify absence of intracaudal stasis. If there is stasis, the mouse will be sacrificed at late times (24 or 48 h). Static scintigraphic images may be recorded at 2 h, 4 h, 24 h and 48 h (Imager micro-SPECT-CT BIOSCAN©).
This is done ex-vivo by gamma counting of the various samples, using a gamma well counter for medical use, regularly calibrated for the isotopes used (Tc-99m and In-111). The animals are euthanized according to the protocols allowed by the animal ethics committee at 2 h, 4 h, 24 h or 48 h. The main organs are removed (brain, spleen, kidneys, lungs, heart, alimentary canal, liver) as well as a fragment of skin, muscle, bone and a blood sample and the whole tumor. Each sample is weighed and its gamma activity is counted in a sample-changing well counter for dedicated medical use, calibrated for the radioelements used. The animal's carcass is also weighed after removing the tail; these samples are incinerated and their gamma activity is also measured. The gamma activity of the samples containing all the collected urine and the feces is also measured. The activity of each sample is normalized (relative to the time of injection), and the ratio of the activity of each sample is calculated relative to the total activity injected (=the sum of all of the activities measured except that of the tail), expressed in % per gram of tissue, for calculating the ratio of the activity present in the tumor relative to the main organs (liver, kidneys, lungs and blood). The percentage of the activity eliminated is calculated.
The mean values of all of the data for all of the mice whose data are exploitable are calculated, as well as after eliminating the animals with urinary excretion that is too quick (>50% at 2 h or 75% at 4 h, as well as the mice with tumors >2 g, as the existence of necrosis may distort the calculation of the ratio of fixation in the tumor).
The biodistribution data of the various dendrimer compounds coupled to the IFC01102 ligand (also called amine R) and to a chelating agent are compared with those of the ligand alone coupled to the DOTA chelating agent (compound AP045) and radiolabeled with the same radioelement. 8.5 Results with Compound APAG9-1 (Radiolabeled with Tc99m) The radiochemical purity is above 95%, according to the chromatographic profile obtained as described above (example 5). 12 animals were injected. The average activity injected is 3.5±2.4 MBq. 2 animals were euthanized at 2 h, 4 at 24 h and 48 h post-injection. Examples of planar image immediately post-injection and 2 hours post-injection are illustrated in FIG. 3.

[2] = tested on: murine melanoma (B16FO line); assay: as above; type: in vivo, C57B16 mice
[3] = cited from earlier work
[4] = 48 post-IV, animals with low urinary excretion or under hydric restriction
[5] = 2 h post-iv, animals with low urinary excretion or under hydric restriction
[6] = 4 h post-IV, animals with low urinary excretion or under hydric restriction
[7] = 24 h post-IV, animals with low urinary excretion or under hydric restriction

Compound: CCN(CC)CCNC(=O)c1cnc2cc(NC(=O)NCCOCCOCCNC(=O)CN3CCN(CC(=O)O)CCN(CC(=O)O)CCN(CC(=O)O)CC3)ccc2n1 [AP045, reference compound]
- Ratio (g)/Al TU/kidneys ([1]; 48 post-IV): 4.06E−01
- Ratio (g)/Al Tu/Liver ([1]; 48 post-IV): 7.14E−02
- Ratio (g)/Al Tu/Lungs ([1]; 48 post-IV): 2.97E+00
- Ratio (g)/Al Tu/blood ([1]; 48 post-IV): 9.95E+00
- Total Elimination (% del ‘Al’) ([1]; 48 post-IV): 7.23E+01 % del ‘Al’
- Tumor (g/Al %) ([1]; 48 post-IV): 1.19E+00 g/Al %
- Ratio (g)/Al TU/kidneys ([1]; 4 h post-IV): 2.45E−01
- Ratio (g)/Al Tu/Liver ([1]; 4 h post-IV): 4.97E−02
- Ratio (g)/Al Tu/Lungs ([1]; 4 h post-IV): 1.92E+00
- Ratio (g)/Al Tu/blood ([1]; 4 h post-IV): 1.12E+01
- Tumor (g/Al %) ([1]; 4 h post-IV): 1.44E+00 g/Al %
- tumor ratio relative to the liver ([1]; 24 hours after IV injection, Indium-111): greater than 1
- Ratio (g)/Al TU/kidneys ([1]; 24 h post-IV): 2.93E−01
- Ratio (g)/Al Tu/Liver ([1]; 24 h post-IV): 1.31E+00
- Ratio (g)/Al Tu/Lungs ([1]; 24 h post-IV): 3.55E+00
- Total Elimination (% del ‘Al’) ([1]; 24 h post-IV): 90.33 % del ‘Al’
- Tumor (g/Al %) ([1]; 24 h post-IV): 1.77E+00 g/Al %
- time at which the maximum tumoral uptake is observed ([1]; after IV injection of the radiolabeled compound): 24 h
- Total Elimination (% del ‘Al’) ([2]; 4 h post-IV, Indium-111-radiolabeled, IV): 6.38E+01 % del ‘Al’
- tumor/kidney ratio (in words) ([2]; Indium-111, activity in the kidneys still high): unfavorable

Compound: CCN(CC)CCNC(=O)c1cnc2cc(NC(=O)NCCOCCOCCNC(=O)CCOCCOCCOCCOCCNC(=O)CCN(CCNC(=O)CCN(CCC(=O)NCCN(CCC(=O)NCCOCCOCCOCCOCCC(=O)NCCOCCOCCNC(=O)Nc3ccc4nc(C(=O)NCCN(CC)CC)cnc4c3)CCC(=O)NCCOCCOCCOCCOCCC(=O)NCCOCCOCCNC(=O)Nc3ccc4nc(C(=O)NCCN(CC)CC)cnc4c3)Cc3cn(CCOCCOCCOCCOCCNC(=O)CN4CCN(CC(=O)O)CCN(CC(=O)O)CCN(CC(=O)O)CC4)nn3)CCC(=O)NCCOCCOCCOCCOCCC(=O)NCCOCCOCCNC(=O)Nc3ccc4nc(C(=O)NCCN(CC)CC)cnc4c3)ccc2n1 [AP070]
- Ratio (g)/Al TU/kidneys [1, 4]: 5.23E−01
- Ratio (g)/Al Tu/Liver [1, 4]: 1.59E+00
- Ratio (g)/Al Tu/Lungs [1, 4]: 6.28E+00
- Ratio (g)/Al Tu/blood [1, 4]: 1.74E+01
- Total Elimination [1, 4]: 8.4E+01
- Tumor (g/Al %) [1, 4]: 3.60E+00 g/Al %
- Ratio (g)/Al TU/kidneys [1, 5]: 3.6E−01
- Ratio (g)/Al Tu/Liver [1, 5]: 1.4E+00
- Ratio (g)/Al Tu/Lungs [1, 5]: 2.1E+00
- Ratio (g)/Al Tu/blood [1, 5]: 1.9E+00
- Total Elimination [1, 5]: 4.8E+01
- Tumor (g/Al %) [1, 5]: 5.9E+00 g/Al %
- tumoral uptake (in words) ([1]; 4 hours after IV injection, Indium-111): high
- Ratio (g)/Al TU/kidneys [1, 6]: 3.96E−01
- Ratio (g)/Al Tu/Liver [1, 6]: 1.28E+00
- Ratio (g)/Al Tu/Lungs [1, 6]: 2.93E+00
- Ratio (g)/Al Tu/blood [1, 6]: 3.07E+00
- Total Elimination [1, 6]: 2.6E+01
- Tumor (g/Al %) [1, 6]: 1.27E+01 g/Al %
- Ratio (g)/Al TU/kidneys [1, 7]: 2.58E−01
- Ratio (g)/Al Tu/Liver [1, 7]: 4.06E−01
- Ratio (g)/Al Tu/Lungs [1, 7]: 3.52E+00
- Ratio (g)/Al Tu/blood [1, 7]: 2.00E+01
- Total Elimination [1, 7]: 6.8E+01
- Tumor (g/Al %) [1, 7]: 3.69E+00 g/Al %
- tumoral uptake compared with the ligand alone (AP045) ([1]; APAG22-1: at two hours post-IV): far higher
- tumor/liver ratio relative to the compound AP071 ([1]; Indium-111): less favorable
- tumoral uptake relative to the compound AP071 ([2]; notably at 4 hours, Indium-111): lower

Compound: O=C([O-])CN(CCN(CC(=O)[O-])CC(=O)O)CCN(CC(=O)[O-])CC(=O)O.[Gd+3] [Gd(III)-DTPA]
- relaxation rate r1 ([3]; 0.6 T, 20° C.): 5.4 mM⁻¹ s⁻¹

Compound: Gadomer-17
- r1 ([3]; 1.5 T and 37° C.): 15.2 mM⁻¹ s⁻¹
